Assay results reported in patent US11319305B2, “Pyrimidine sulfamide derivative and preparation method and medical application thereof” (SHIJIAZHUANG SAGACITY NEW DRUG DEVELOPMENT CO., LTD., priority 2017, dated 2022).

Assays:
[1] = target: T1, human ETB receptor (Homo sapiens, UniProt P24530); assay: In vitro antagonistic effect against human ETB receptor, Ca2+ signal in transfected CHO cells; format: cell-based; settings: response to 0.3 nM endothelin-1
T1 construct: host or cells: CHO cells
T1 sequence (P24530 27-442): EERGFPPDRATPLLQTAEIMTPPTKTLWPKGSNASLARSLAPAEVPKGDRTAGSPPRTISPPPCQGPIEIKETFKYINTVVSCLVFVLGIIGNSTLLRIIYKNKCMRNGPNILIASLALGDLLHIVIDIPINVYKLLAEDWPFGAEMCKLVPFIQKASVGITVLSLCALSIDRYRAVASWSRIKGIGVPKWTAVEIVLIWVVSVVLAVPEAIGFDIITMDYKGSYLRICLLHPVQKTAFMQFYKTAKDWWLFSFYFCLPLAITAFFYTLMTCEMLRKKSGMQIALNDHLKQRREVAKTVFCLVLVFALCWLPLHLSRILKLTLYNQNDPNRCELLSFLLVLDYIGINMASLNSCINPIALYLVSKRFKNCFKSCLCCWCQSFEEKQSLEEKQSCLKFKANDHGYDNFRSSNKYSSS
Experimental: Antagonist activity of the compound against human ETB receptors expressed in transfected CHO cells was evaluated by measuring the effect of the compound on the changes in the cytoplasmic Ca^2+ ion signal induced by human ETB receptor agonists. The functional activity of the ETB receptor antagonistic effect was tested in Eurofins-Cerep SA according to current standard procedures.
1. Cells were suspended in DMEM buffer (Invitrogen) and then distributed in 384-well plate (100 μL/well) at a density of 3×10^4 cells/well;
2. Probenecid in HBSS buffer (Invitrogen) supplemented with 20 mM Hepes (Invitrogen) (pH 7.4) was mixed with fluorescent probe (Fluo4 NW, Invitrogen), the mixture was added to each wells, then balanced with cells at 37° C. for 60 minutes, and then balanced with cells at 22° C. for 15 minutes;
3. The test plate was placed in a microplate reader (CellLux, PerkinElmer), a DMSO solution or HBSS buffer with an appropriate concentration of the test compound and the positive control was added, and 0.3 nM endothelin-1 or HBSS buffer (base control) was added after 5 minutes, and then the change in fluorescence intensity proportional to the concentration of Ca^2+ ions of […] was measured;
4. Results were shown as the percent inhibition of control response to 0.3 nM endothelin-1;
5. Standard positive control was BQ-788, several concentrations were tested in each experiments. The data was analyzed using Prism to generate a concentration-response curve, and IC50 values of the compounds were calculated.

[2] = target: T2, human ETA receptor (Homo sapiens, UniProt P25101); assay: In vitro antagonistic effect against human ETA receptor, Ca2+ signal in SK-N-MC cells; format: cell-based; settings: for IC50: SK-N-MC cells, response to 1 nM endothelin-1; for ETA/ETB selectivity: ratio of ETB IC50 to ETA IC50
T2 construct: endogenously expressed human ETA receptors in SK-N-MC cells; host or cells: SK-N-MC cells
T2 sequence (P25101 21-427): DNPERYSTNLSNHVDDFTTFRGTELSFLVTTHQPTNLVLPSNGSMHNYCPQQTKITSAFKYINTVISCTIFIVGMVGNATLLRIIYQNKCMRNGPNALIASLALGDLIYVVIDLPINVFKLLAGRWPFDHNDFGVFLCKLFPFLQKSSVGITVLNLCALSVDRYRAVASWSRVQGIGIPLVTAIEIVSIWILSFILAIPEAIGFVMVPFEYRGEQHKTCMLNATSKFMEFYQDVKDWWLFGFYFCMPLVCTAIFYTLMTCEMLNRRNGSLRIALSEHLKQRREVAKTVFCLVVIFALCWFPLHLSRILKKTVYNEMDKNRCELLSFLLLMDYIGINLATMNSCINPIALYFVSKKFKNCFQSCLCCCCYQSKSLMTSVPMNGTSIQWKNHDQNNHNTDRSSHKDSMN
Experimental: Experimental Embodiment 1: In Vitro Test of Antagonistic Effect Against Human ETA Receptor
Antagonistic activity of the compounds against endogenously expressed human ETA receptors in SK-N-MC cells was evaluated by measuring the effect of compounds on the changes in cytoplasmic Ca^2+ ion signal induced by human ETA receptor agonists using fluorescence detection methods. The functional activity of the ETA receptor antagonistic effect was tested in Eurofins-Cerep SA according to current standard procedures.
1. Cells were suspended in Dulbecco's modified Eagle medium solution (DMEM, Invitrogen) supplemented with 1% FCSd, then distributed in 384-well plate (100 μL/well) at a density of 5×10^4 cells/well;
2. Probenecid in Hank's balanced salt solution (HBSS, Invitrogen) supplemented with 20 mM 4-(2-hydroxyethyl)piperazine-1-ethanesulfonic acid (Hepes, Invitrogen) (pH 7.4) was mixed with fluorescent probe (Fluo4 NW, Invitrogen), the mixture was added to each wells, then balanced with cells at 37° C. for 60 minutes, and then balanced with cells at 22° C. for 15 minutes;
3. The test plate was placed in a microplate reader (CellLux, PerkinElmer), a DMSO solution or HBSS buffer with an appropriate concentration of the test compound and the positive control was added, and 1 nM endothelin-1 or HBSS buffer (base control) was added after 5 minutes, and then the change in fluorescence intensity proportional to the concentration of Ca^2+ ions of free […] was measured;
5. Standard positive control was BQ-123, several concentrations were tested in each experiments. The data was analyzed using Prism to generate a concentration-response curve, and IC50 values of the compounds were calculated.

| SMILES | IC50 [1] | IC50 [2] | ETA/ETB selectivity [2] |
| --- | --- | --- | --- |
| O=S(=O)(Nc1ncnc(OCCOc2ncc(Br)cn2)c1-c1ccc2c(c1)OCC2)N1CC2(COC2)C1 [WX032] | > 30000 nM | 3 nM | >10000 |
| CCCNS(=O)(=O)Nc1ncnc(OCCOc2ncc(Br)cn2)c1-c1ccc2c(c1)OCO2 [WX008] | 280000 nM | 0.43 nM | 651100 |
| O=S(=O)(NCC1CCCO1)Nc1ncnc(OCCOc2ncc(Br)cn2)c1-c1ccc2c(c1)OCO2 (single isomer, unassigned) [WX023] | 15000 nM | 0.32 nM | 46800 |
| COCCNS(=O)(=O)Nc1ncnc(OCCOc2ncc(Br)cn2)c1-c1ccc2c(c1)OCC2 [WX030] | 33000 nM | 1.3 nM | 25300 |
| COCCCNS(=O)(=O)Nc1ncnc(OCCOc2ncc(Br)cn2)c1-c1ccc2c(c1)OCO2 [WX017] | 16000 nM | 0.45 nM | 35500 |
| O=S(=O)(NCC1CCC1)Nc1ncnc(OCCOc2ncc(Br)cn2)c1-c1ccc2c(c1)OCO2 [WX020] | 17000 nM | 0.35 nM | 48500 |
| CCCOCCNS(=O)(=O)Nc1ncnc(OCCOc2ncc(Br)cn2)c1-c1ccc2c(c1)OCO2 [WX016] | 22000 nM | 0.79 nM | 27800 |
| O=S(=O)(NCC1CCOCC1)Nc1ncnc(OCCOc2ncc(Br)cn2)c1-c1ccc2c(c1)OCO2 [WX019] | > 30000 nM | 0.44 nM | >68100 |
| O=S(=O)(Nc1ncnc(OCCOc2ncc(Br)cn2)c1-c1ccc2c(c1)OCC2)N1CCC2(CC1)CC2 [WX028] | > 100000 nM | 2 nM | >50000 |
| COCCCNS(=O)(=O)Nc1ncnc(OCCOc2ncc(Br)cn2)c1-c1ccc2scnc2c1 [WX007] | 35000 nM | 2.1 nM | 16600 |
| CCCCNS(=O)(=O)Nc1ncnc(OCCOc2ncc(Br)cn2)c1-c1ccc2c(c1)OCO2 [WX012] | 16000 nM | 0.17 nM | 94100 |
| O=S(=O)(NCC1CC1)Nc1ncnc(OCCOc2ncc(Br)cn2)c1-c1ccc2ccnn2c1 [WX027] | 68000 nM | 2.8 nM | 24200 |
| O=S(=O)(NCC1CCCO1)Nc1ncnc(OCCOc2ncc(Br)cn2)c1-c1ccc2c(c1)OCO2 (stereo not drawn) [WX021] | 46000 nM | 0.34 nM | 135200 |
| O=S(=O)(NCC(F)(F)F)Nc1ncnc(OCCOc2ncc(Br)cn2)c1-c1ccc2c(c1)OCO2 [WX010] | 61000 nM | 1.5 nM | 40600 |
| CCCNS(=O)(=O)Nc1ncnc(OCCOc2ncc(Br)cn2)c1-c1ccc2c(c1)CCO2 [WX033] | > 30000 nM | 1.6 nM | >18700 |
| CCCCNS(=O)(=O)Nc1ncnc(OCCOc2ncc(Br)cn2)c1-c1ccc2ccnn2c1 [WX026] | 73000 nM | 1.1 nM | 66300 |
| COCCNS(=O)(=O)Nc1ncnc(OCCOc2ncc(Br)cn2)c1-c1ccc2c(c1)CCO2 [WX034] | 200000 nM | 3.6 nM | 55500 |
| CCCCNS(=O)(=O)Nc1ncnc(OCCOc2ncc(Br)cn2)c1-c1ccc2scnc2c1 [WX004] | 21000 nM | 1.5 nM | 14000 |
| CCCNS(=O)(=O)Nc1ncnc(OCCOc2ncc(Br)cn2)c1-c1ccc2c(c1)OCC2 [WX029] | 16000 nM | 0.65 nM | 24600 |
| O=S(=O)(Nc1ncnc(OCCOc2ncc(Br)cn2)c1-c1ccc2c(c1)OCO2)NC1CCC1 [WX011] | 22000 nM | 1 nM | 22000 |
| O=S(=O)(NCC1CC1)Nc1ncnc(OCCOc2ncc(Br)cn2)c1-c1ccc2c(c1)OCO2 [WX014] | 35000 nM | 1.3 nM | 26900 |
| O=S(=O)(NCC1CCCO1)Nc1ncnc(OCCOc2ncc(Br)cn2)c1-c1ccc2c(c1)OCO2 (single isomer, unassigned) [WX024] | 6700 nM | 0.25 nM | 26800 |
| CS(=O)(=O)CCNS(=O)(=O)Nc1ncnc(OCCOc2ncc(Br)cn2)c1-c1ccc2c(c1)OCO2 [WX022] | 76000 nM | 2.1 nM | 36100 |
| CCNS(=O)(=O)Nc1ncnc(OCCOc2ncc(Br)cn2)c1-c1ccc2c(c1)OCO2 [WX009] | 71000 nM | 2.3 nM | 30800 |
| CCOCCCNS(=O)(=O)Nc1ncnc(OCCOc2ncc(Br)cn2)c1-c1ccc2c(c1)OCO2 [WX018] | 9600 nM | 0.76 nM | 12600 |
| CCNS(=O)(=O)Nc1ncnc(OCCOc2ncc(Br)cn2)c1-c1ccc2scnc2c1 [WX002] | > 300000 nM | 2.8 nM | >107000 |
| O=S(=O)(Nc1ncnc(OCCOc2ncc(Br)cn2)c1-c1ccc2c(c1)OCC2)N1C[C@H]2C[C@H]2C1 [WX031] | > 100000 nM | 1.1 nM | >90900 |
| CCOCCNS(=O)(=O)Nc1ncnc(OCCOc2ncc(Br)cn2)c1-c1ccc2c(c1)OCO2 [WX015] | > 300000 nM | 0.86 nM | >348800 |
| O=S(=O)(NCC(F)(F)F)Nc1ncnc(OCCOc2ncc(Br)cn2)c1-c1ccc2scnc2c1 [WX003] | 71000 nM | 2.6 nM | 27300 |
